According to patent US20230085307A1, “PYRIDAZINONE COMPOUND AND HERBICIDE” (NISSAN CHEMICAL CORPORATION, priority 2019, published 2023):

Columns and labels:
[1] = system: late watergrass; assay: Test Example 1: herbicidal activity, application before weed generation under submerged conditions (Table 16, symbol A); format: in vivo, late watergrass (Echinochloa oryzicola); settings: 320 g/ha applied herbicide
Summary of the method: (§1)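 Submerged Wagner pots (alluvial soil, 4 cm water) sown with weed seeds and planted with 2.5-leaf rice seedlings; emulsifiable concentrate diluted in water applied to water surface on sowing day. Held in greenhouse at 25-30 °C; injury scored 0-5 by herbicidal rate after three weeks.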

[2] = system: Japanese bulrush; assay: Test Example 1: herbicidal activity, application before weed generation under submerged conditions (Table 16, symbol B); format: in vivo, Japanese bulrush (Schoenoplectus juncoides); settings: 320 g/ha applied herbicide
Summary of the method: as §1

[3] = system: late watergrass; assay: Test Example 2: herbicidal activity, application during weed generation under submerged conditions (Table 17, symbol A); format: in vivo, late watergrass (Echinochloa oryzicola); settings: AAH 320 g/ha; application during weed generation, submerged conditions
Summary of the method: (§2)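 In this pot test, flooded alluvial soil (water depth 4 cm) holds all three species sown as a mixture. Once seedlings have one to two leaves, the compound's emulsion, thinned with water to the intended dose, is poured on the water; grading follows after three weeks on the earlier criteria.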

[4] = system: oval-leafed pondweed; assay: Test Example 2: herbicidal activity, application during weed generation under submerged conditions (Table 17, symbol C); format: in vivo, oval-leafed pondweed (Monochoria vaginalis); settings: AAH 320 g/ha; application during weed generation, submerged conditions
Summary of the method: as §2

[5] = system: barnyard grass; assay: Test Example 3: herbicidal effect by foliage application, Wagner pot (Table 18, symbol H); format: in vivo, barnyard grass (Echinochloa crus-galli); settings: for herbicidal effect on H (barnyard grass), rating 0-5: 320 g/ha
Summary of the method: (§3)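 Plants were sown in alluvial soil held under 0.1–0.5 cm standing water and grown 14 days in a greenhouse at 25–30 °C. An emulsifiable formulation, water-diluted to the set dose, was then sprayed onto the foliage, and effects were scored three weeks later using previously defined criteria.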

[6] = system: Chinese sprangletop; assay: Test Example 3: herbicidal effect by foliage application, Wagner pot (Table 18, symbol D); format: in vivo, chinese sprangletop (Leptochloa chinensis); settings: for herbicidal effect on D (Chinese sprangletop), rating 0-5: 320 g/ha
Summary of the method: as §3

[7] = system: rice flat sedge; assay: Test Example 3: herbicidal effect by foliage application, Wagner pot (Table 18, symbol E); format: in vivo, rice flat sedge (Cyperus iria); settings: for herbicidal effect on E (rice flat sedge), rating 0-5: 320 g/ha
Summary of the method: as §3

[8] = system: Italian ryegrass; assay: Test Example 4: herbicidal effect by soil treatment (Table 19, symbol K); format: in vivo, Italian ryegrass (Lolium multiflorum)
Summary of the method: (§4)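 Emulsion of test compound, water-diluted to predetermined amount, sprayed on soil after sowing (seed depth ~1.5 cm, sterilized diluvial soil). Greenhouse, 25–30° C. Effect graded at three weeks post-spray.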

[9] = system: windgrass; assay: Test Example 4: herbicidal effect by soil treatment (Table 19, symbol L); format: in vivo, windgrass (Apera spica-venti)
Summary of the method: as §4

[10] = system: redroot pigweed; assay: Test Example 4: herbicidal effect by soil treatment (Table 19, symbol N); format: in vivo, redroot pigweed (Amaranthus retroflexus)
Summary of the method: as §4

[11] = system: false cleavers; assay: Test Example 4: herbicidal effect by soil treatment (Table 19, symbol Q); format: in vivo, false cleavers (Galium spurium); settings: for herbicidal effect rating, Q: false cleavers: amount of applied herbicide 320 g/ha
Summary of the method: as §4

[12] = system: southern crabgrass; assay: Test Example 5: herbicidal effect by foliage application, plastic box (Table 20, symbol F); format: in vivo, southern crabgrass (Digitaria ciliaris); settings: foliage application; for herbicidal effect grade, F: southern crabgrass: three weeks after application
Summary of the method: (§5)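 Post-emergence foliar test in sterilized diluvial soil. Compound applied as water-diluted emulsion at a predetermined rate to 14-day-old plants; evaluation at three weeks.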

[13] = system: green foxtail; assay: Test Example 5: herbicidal effect by foliage application, plastic box (Table 20, symbol G); format: in vivo, green foxtail (Setaria viridis); settings: foliage application; for herbicidal effect grade, G: green foxtail: three weeks after application
Summary of the method: as §5

[14] = system: barnyard grass; assay: Test Example 5: herbicidal effect by foliage application, plastic box (Table 20, symbol H); format: in vivo, barnyard grass (Echinochloa crus-galli); settings: foliage application; for herbicidal effect grade, H: barnyard grass: three weeks after application
Summary of the method: as §5

[15] = system: wild oat; assay: Test Example 5: herbicidal effect by foliage application, plastic box (Table 20, symbol I); format: in vivo, wild oat (Avena fatua); settings: foliage application; for herbicidal effect grade, I: wild oat: three weeks after application
Summary of the method: as §5

[16] = system: blackgrass; assay: Test Example 5: herbicidal effect by foliage application, plastic box (Table 20, symbol J); format: in vivo, blackgrass (Alopecurus myosuroides); settings: foliage application; for herbicidal effect grade, J: blackgrass: three weeks after application
Summary of the method: as §5

[17] = system: persian speedwell; assay: Test Example 5: herbicidal effect by foliage application, plastic box (Table 20, symbol R); format: in vivo, Persian speedwell (Veronica persica); settings: foliage application; for herbicidal effect grade, R: persian speedwell: three weeks after application
Summary of the method: as §5

[18] = 320 g/ha, 3 weeks after application
[19] = amount of applied herbicide 320 g/ha
[20] = AAH 320 g/ha, evaluated three weeks after application

| Compound | Herbicidal effect on A: late watergrass (grade 0-5) [1] | Herbicidal effect on B: Japanese bulrush (grade 0-5) [2] | herbicidal effect rating, A: late watergrass [3] | herbicidal effect rating, C: oval-leafed pondweed [4] | herbicidal effect on H (barnyard grass), rating 0-5 [5] | herbicidal effect on D (Chinese sprangletop), rating 0-5 [6] | herbicidal effect on E (rice flat sedge), rating 0-5 [7] | herbicidal effect rating, K: Italian ryegrass [8, 19] | herbicidal effect rating, N: redroot pigweed [10, 19] | herbicidal effect rating, Q: false cleavers [11] | herbicidal effect grade, F: southern crabgrass ([12]; 320 g/ha) | herbicidal effect grade, G: green foxtail ([13]; 320 g/ha) | herbicidal effect grade, H: barnyard grass ([14]; 320 g/ha) | herbicidal effect grade, I: wild oat ([15]; 320 g/ha) | herbicidal effect grade, J: blackgrass ([16]; 320 g/ha) | herbicidal effect grade, R: persian speedwell ([17]; 320 g/ha) | also measured |
| --- | --- | --- | --- | --- | --- | --- | --- | --- | --- | --- | --- | --- | --- | --- | --- | --- | --- |
| C#CC(C)Oc1ccc(-c2sc3ccccc3c2-c2c(O)c(C)nn(C)c2=O)cc1 (racemic) [1-217] | 4 (Herbicidal rate of 70% or more and less than 90%) | 5 (Herbicidal rate of 90% or more (almost completely withered)) | 0 (Herbicidal rate of 5% or less (almost no effect)) | 3 (Herbicidal rate of 40% or more and less than 70%) | 5 (Herbicidal rate of 90% or more (almost completely withered)) | 5 (Herbicidal rate of 90% or more (almost completely withered)) | 3 (Herbicidal rate of 40% or more and less than 70%) | – | – | – | – | – | – | – | – | – | K: Italian ryegrass, herbicidal effect rating ([8]; AAH 320 g/ha): 0 (Herbicidal rate of 5% or less (almost no effect)); L: windgrass, herbicidal effect rating ([9]; AAH 320 g/ha): 0 (Herbicidal rate of 5% or less (almost no effect)); N: redroot pigweed, herbicidal effect rating ([10]; AAH 320 g/ha): 4 (Herbicidal rate of 70% or more and less than 90%); Q: false cleavers, herbicidal effect rating ([11]; AAH 320 g/ha): 3 (Herbicidal rate of 40% or more and less than 70%); effect on southern crabgrass (F) [12, 18]: 4 (Herbicidal rate of 70% or more and less than 90%); effect on green foxtail (G) [13, 18]: 4 (Herbicidal rate of 70% or more and less than 90%); effect on barnyard grass (H) [14, 18]: 5 (Herbicidal rate of 90% or more (almost completely withered)); effect on wild oat (I) [15, 18]: 3 (Herbicidal rate of 40% or more and less than 70%); effect on blackgrass (J) [16, 18]: 4 (Herbicidal rate of 70% or more and less than 90%); effect on persian speedwell (R) [17, 18]: 5 (Herbicidal rate of 90% or more (almost completely withered)) |
| CCCCCOc1ccc(-c2sc3ccccc3c2-c2c(O)c(C)nn(C)c2=O)cc1 [1-026] | 1 (Herbicidal rate of 5% or more and less than 20%) | 2 (Herbicidal rate of 20% or more and less than 40%) | 2 (Herbicidal rate of 20% or more and less than 40%) | – | 4 (Herbicidal rate of 70% or more and less than 90%) | 1 (Herbicidal rate of 5% or more and less than 20%) | 4 (Herbicidal rate of 70% or more and less than 90%) | 0 (Herbicidal rate of 5% or less (almost no effect)) | 5 (Herbicidal rate of 90% or more (almost completely withered)) | 0 (Herbicidal rate of 5% or less (almost no effect)) | 4 (Herbicidal rate of 70% or more and less than 90%) | 5 (Herbicidal rate of 90% or more (almost completely withered)) | 3 (Herbicidal rate of 40% or more and less than 70%) | 2 (Herbicidal rate of 20% or more and less than 40%) | 4 (Herbicidal rate of 70% or more and less than 90%) | 5 (Herbicidal rate of 90% or more (almost completely withered)) | herbicidal effect rating, L: windgrass [9, 19]: 0 (Herbicidal rate of 5% or less (almost no effect)) |
| CC(=O)c1ccc(-c2sc3ccccc3c2-c2c(O)c(C)nn(C)c2=O)cc1 [1-041] | 3 (Herbicidal rate of 40% or more and less than 70%) | 4 (Herbicidal rate of 70% or more and less than 90%) | 0 (Herbicidal rate of 5% or less (almost no effect)) | 3 (Herbicidal rate of 40% or more and less than 70%) | 1 (Herbicidal rate of 5% or more and less than 20%) | 4 (Herbicidal rate of 70% or more and less than 90%) | 5 (Herbicidal rate of 90% or more (almost completely withered)) | 5 (Herbicidal rate of 90% or more (almost completely withered)) | 4 (Herbicidal rate of 70% or more and less than 90%) | 5 (Herbicidal rate of 90% or more (almost completely withered)) | 4 (Herbicidal rate of 70% or more and less than 90%) | 1 (Herbicidal rate of 5% or more and less than 20%) | 0 (Herbicidal rate of 5% or less (almost no effect)) | 1 (Herbicidal rate of 5% or more and less than 20%) | 0 (Herbicidal rate of 5% or less (almost no effect)) | 5 (Herbicidal rate of 90% or more (almost completely withered)) | – |
| Cc1cc(-c2sc3ccccc3c2-c2c(O)c(C)nn(C)c2=O)ccc1F [1-051] | 4 (Herbicidal rate of 70% or more and less than 90%) | 0 (Herbicidal rate of 5% or less (almost no effect)) | 2 (Herbicidal rate of 20% or more and less than 40%) | 0 (Herbicidal rate of 5% or less (almost no effect)) | 4 (Herbicidal rate of 70% or more and less than 90%) | 0 (Herbicidal rate of 5% or less (almost no effect)) | 5 (Herbicidal rate of 90% or more (almost completely withered)) | 3 (Herbicidal rate of 40% or more and less than 70%) | 4 (Herbicidal rate of 70% or more and less than 90%) | 0 (Herbicidal rate of 5% or less (almost no effect)) | 3 (Herbicidal rate of 40% or more and less than 70%) | 5 (Herbicidal rate of 90% or more (almost completely withered)) | 3 (Herbicidal rate of 40% or more and less than 70%) | 3 (Herbicidal rate of 40% or more and less than 70%) | 0 (Herbicidal rate of 5% or less (almost no effect)) | 5 (Herbicidal rate of 90% or more (almost completely withered)) | – |
| CC(=O)c1ccc(-c2sc3ccc(F)cc3c2-c2c(O)c(C)nn(C)c2=O)cc1 [2-339] | 4 (Herbicidal rate of 70% or more and less than 90%) | 5 (Herbicidal rate of 90% or more (almost completely withered)) | 3 (Herbicidal rate of 40% or more and less than 70%) | 3 (Herbicidal rate of 40% or more and less than 70%) | – | – | – | – | – | – | – | – | – | – | – | – | herbicidal effect on H: barnyard grass [5, 19]: 5 (Herbicidal rate of 90% or more (almost completely withered)); herbicidal effect on D: Chinese sprangletop [6, 19]: 4 (Herbicidal rate of 70% or more and less than 90%); herbicidal effect on E: rice flat sedge [7, 19]: 4 (Herbicidal rate of 70% or more and less than 90%); herbicidal effect on K: Italian ryegrass [8, 19]: 4 (Herbicidal rate of 70% or more and less than 90%); herbicidal effect on L: windgrass [9, 19]: 2 (Herbicidal rate of 20% or more and less than 40%); herbicidal effect on N: redroot pigweed [10, 19]: 4 (Herbicidal rate of 70% or more and less than 90%); F: southern crabgrass, herbicidal effect (criteria 0-5) [12, 20]: 3 (Herbicidal rate of 40% or more and less than 70%); G: green foxtail, herbicidal effect (criteria 0-5) [13, 20]: 4 (Herbicidal rate of 70% or more and less than 90%); H: barnyard grass, herbicidal effect (criteria 0-5) [14, 20]: 3 (Herbicidal rate of 40% or more and less than 70%); I: wild oat, herbicidal effect (criteria 0-5) [15, 20]: 3 (Herbicidal rate of 40% or more and less than 70%); J: blackgrass, herbicidal effect (criteria 0-5) [16, 20]: 1 (Herbicidal rate of 5% or more and less than 20%); R: persian speedwell, herbicidal effect (criteria 0-5) [17, 20]: 5 (Herbicidal rate of 90% or more (almost completely withered)) |
